Laboratory results from patent US10479810B2, “Crystal form of tenofovir alafenamide salt, preparation method and use thereof” (SHANGHAI BEGREAT PHARMATECH, priority 2016, dated 2019).
Like-named read-outs stand apart in the source and are kept apart here.

Conditions: for TAF total degradation impurities %: mixtures with emtricitabine at weight ratio about 1:15, HPLC
Experimental: In this patent, TAF fumarate crystal form I (prepared according to the method of WO2013025788A1), TAF fumarate crystal form II, TAF fumarate crystal form A and TAF fumarate crystal form B and emtricitabine are compared. The mixture was mixed at a weight ratio of about 1:15, placed at 40° C. and a relative humidity of 75%, and placed open for 21 days. The degradation of TAF was analyzed by HPLC at 0 days and 21 day.

Compound	chemical compatibility of TAF with emtricitabine (compared with TAF hemifumarate crystal form I in combination with emtricitabine)	TAF total degradation impurities % (0 day) [%]	TAF total degradation impurities % (21 day, 40° C., relative humidity 75%, placed open) [%]
CC(C)OC(=O)[C@H](C)N[P@](=O)(CO[C@H](C)Cn1cnc2c(N)ncnc21)Oc1ccccc1.O=C(O)/C=C/C(=O)O [TAF fumarate Form II, 9-[(R)-2-[[(S)-[[(S)-1-(isopropoxycarbonyl)ethyl]amino]phenoxyphosphinyl]methoxy]propyl]adenine fumarate]	significantly improve	–	–
Tenofovir alafenamide hemifumarate [TAF fumarate Form I]	–	0.1	0.9
